One molecule from ChEMBL document CHEMBL5154845, “Dual-acting antitumor agents targeting the A2A adenosine receptor and histone deacetylases: Design and synthesis of 4-(furan-2-yl)-1H-pyrazolo[3,4-d]pyrimidin-6-amine derivatives” (Eur J Med Chem, 2022) can be followed below.

Data set [1] can be described thus: Half-life in male ICR mouse at 20 mg/kg, po measured up to 24 hrs by LC-MS/MS analysis. The class given is ADME, organism-based. The note with it: in vivo.
A short description of data set [2]: Bioavailability in male ICR mouse at 20 mg/kg,ip measured up to 24 hrs by LC-MS/MS analysis. The class given is ADME, organism-based. To be noted: in vivo.
The target of data set [3] is T1, Protein deacetylase HDAC6 (Homo sapiens, UniProt Q9UBN7).
T1 sequence (Q9UBN7 whole entry): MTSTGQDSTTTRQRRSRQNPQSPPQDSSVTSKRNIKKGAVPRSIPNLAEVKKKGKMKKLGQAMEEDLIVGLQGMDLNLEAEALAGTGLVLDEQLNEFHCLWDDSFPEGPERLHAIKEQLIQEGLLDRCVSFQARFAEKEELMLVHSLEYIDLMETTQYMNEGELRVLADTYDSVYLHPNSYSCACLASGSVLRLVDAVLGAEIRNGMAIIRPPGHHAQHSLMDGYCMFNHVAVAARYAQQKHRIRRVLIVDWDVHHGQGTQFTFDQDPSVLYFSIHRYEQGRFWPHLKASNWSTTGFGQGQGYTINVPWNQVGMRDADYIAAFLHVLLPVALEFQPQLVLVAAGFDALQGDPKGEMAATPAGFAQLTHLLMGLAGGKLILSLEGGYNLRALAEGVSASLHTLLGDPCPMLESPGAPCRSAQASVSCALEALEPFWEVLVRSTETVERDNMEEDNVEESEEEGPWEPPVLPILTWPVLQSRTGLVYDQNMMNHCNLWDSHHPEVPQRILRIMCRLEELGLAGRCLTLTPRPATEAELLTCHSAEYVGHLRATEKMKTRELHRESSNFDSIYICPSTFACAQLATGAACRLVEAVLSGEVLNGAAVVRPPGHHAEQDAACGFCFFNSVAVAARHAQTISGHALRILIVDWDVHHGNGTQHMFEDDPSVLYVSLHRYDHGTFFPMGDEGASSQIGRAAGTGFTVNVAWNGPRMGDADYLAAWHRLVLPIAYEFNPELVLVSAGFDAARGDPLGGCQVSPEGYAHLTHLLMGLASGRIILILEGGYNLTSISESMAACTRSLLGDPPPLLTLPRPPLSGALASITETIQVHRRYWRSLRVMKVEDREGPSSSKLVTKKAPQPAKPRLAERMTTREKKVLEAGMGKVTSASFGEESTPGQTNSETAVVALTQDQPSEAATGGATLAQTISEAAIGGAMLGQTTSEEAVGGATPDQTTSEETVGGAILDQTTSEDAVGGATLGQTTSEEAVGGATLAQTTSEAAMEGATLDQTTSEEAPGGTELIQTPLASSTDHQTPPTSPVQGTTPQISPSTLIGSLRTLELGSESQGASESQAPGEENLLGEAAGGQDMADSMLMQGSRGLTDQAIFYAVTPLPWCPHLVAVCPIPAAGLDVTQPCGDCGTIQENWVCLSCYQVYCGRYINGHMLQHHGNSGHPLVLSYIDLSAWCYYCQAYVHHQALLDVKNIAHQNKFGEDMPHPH
The experiment in a line: Inhibition of HDAC6 (unknown origin) using trypsin and LGK(Ac)-AMC as substrates incubated for 1 hr and measured by fluorescence assay.

Data set [4] is described as follows: Cmax in male ICR mouse at 20 mg/kg, ip measured up to 24 hrs by LC-MS/MS analysis. In kind it is ADME, organism-based. On the set-up: time < 24 hrs, dose 20 mg/kg, route ip. To be noted: in vivo.
Data set [5] relates to MC-38. Description: Antitumor activity against mouse MC38 cells xenografted in C57 mouse assessed as tumor growth inhibition at 30 mg/kg, ip administered twice a day. The class given is functional. To be noted: read-out: TGI.
The target of data set [6] is T2, Adenosine receptor A2b (Homo sapiens, UniProt P29275).
T2 sequence (P29275 whole entry): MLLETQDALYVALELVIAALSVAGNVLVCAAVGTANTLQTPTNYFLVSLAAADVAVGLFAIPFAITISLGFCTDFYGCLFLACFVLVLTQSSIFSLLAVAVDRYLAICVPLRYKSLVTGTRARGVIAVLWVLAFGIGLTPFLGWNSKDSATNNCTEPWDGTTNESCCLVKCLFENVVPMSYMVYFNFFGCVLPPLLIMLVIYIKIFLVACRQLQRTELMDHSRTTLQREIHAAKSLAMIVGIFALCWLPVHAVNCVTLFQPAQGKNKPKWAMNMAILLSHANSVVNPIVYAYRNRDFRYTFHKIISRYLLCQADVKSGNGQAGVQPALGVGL
Description: Displacement of [3H]DPCPX from human A2BAR incubated for 60 mins by scintillation counter analysis.

Data set [7] can be described thus: Tmax in male ICR mouse at 20 mg/kg, po measured up to 24 hrs by LC-MS/MS analysis. The class given is ADME, organism-based. The note with it: in vivo.
The test system of data set [8] is MC38. Description: Inhibition of HDAC in mouse MC38 cells assessed as increase in H3 acetylation at 0.1 to 5 uM measured by western blot analysis. In kind it is cell-based. To be noted: dose 0.1-5 µM. (In western blotting, separated proteins are transferred to a membrane and probed.)
Data set [9] is described as follows: Oral bioavailability in male ICR mouse at 20 mg/kg measured up to 24 hrs by LC-MS/MS analysis. In kind it is ADME, organism-based. The note with it: in vivo.
The target of data set [10] is Adenosine receptor A2a (Homo sapiens, UniProt P29274). The experiment in a line: Displacement of [3H][…] from human A2AAR incubated for 60 mins by scintillation counter analysis.
Chain of Adenosine receptor A2a (P29274 whole entry): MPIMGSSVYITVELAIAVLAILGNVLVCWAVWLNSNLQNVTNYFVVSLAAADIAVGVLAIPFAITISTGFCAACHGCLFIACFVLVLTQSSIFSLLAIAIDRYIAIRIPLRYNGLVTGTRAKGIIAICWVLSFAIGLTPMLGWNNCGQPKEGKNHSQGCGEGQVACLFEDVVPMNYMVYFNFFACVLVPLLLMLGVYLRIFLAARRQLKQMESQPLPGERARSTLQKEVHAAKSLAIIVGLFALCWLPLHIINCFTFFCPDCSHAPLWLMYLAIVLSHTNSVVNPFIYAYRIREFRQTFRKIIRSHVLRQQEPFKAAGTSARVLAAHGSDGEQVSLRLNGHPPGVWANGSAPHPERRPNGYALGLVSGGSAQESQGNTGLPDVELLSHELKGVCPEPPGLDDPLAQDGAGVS
In data set [11] the target is Histone deacetylase 2 (Homo sapiens, UniProt Q92769). Description: Inhibition of HDAC2 (unknown origin) using trypsin and LGK(Ac)-AMC as substrates incubated for 1 hr and measured by fluorescence assay.
Chain of Histone deacetylase 2 (Q92769 whole entry): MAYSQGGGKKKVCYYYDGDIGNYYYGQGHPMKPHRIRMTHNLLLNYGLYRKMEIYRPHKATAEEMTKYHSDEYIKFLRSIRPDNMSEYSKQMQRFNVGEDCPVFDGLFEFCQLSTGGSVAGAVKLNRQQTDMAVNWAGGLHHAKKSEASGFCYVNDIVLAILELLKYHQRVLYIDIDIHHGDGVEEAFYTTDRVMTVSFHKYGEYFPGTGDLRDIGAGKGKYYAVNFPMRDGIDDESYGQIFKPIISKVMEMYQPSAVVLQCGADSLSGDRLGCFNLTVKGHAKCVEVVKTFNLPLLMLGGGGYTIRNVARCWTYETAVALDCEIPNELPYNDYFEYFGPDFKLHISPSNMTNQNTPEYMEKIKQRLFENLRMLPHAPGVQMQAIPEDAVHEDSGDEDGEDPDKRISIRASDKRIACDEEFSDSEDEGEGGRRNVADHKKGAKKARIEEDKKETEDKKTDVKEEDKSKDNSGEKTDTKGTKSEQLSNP
Data set [12] concerns CT26. The experiment in a line: Antiproliferative activity against mouse CT26 cells after 72 hrs by CCK-8 assay. In kind it is functional.
Data set [13] in a line: Clearance in male ICR mouse at 20 mg/kg, ip measured up to 24 hrs by LC-MS/MS analysis. In kind it is ADME, organism-based. To be noted: in vivo.
Data set [14] in a line: AUC (0 to t) in male ICR mouse at 20 mg/kg, ip measured up to 24 hrs by LC-MS/MS analysis. The note with it: in vivo. In kind it is ADME, organism-based. On the set-up: dose 20 mg/kg, time < 24 hrs, route ip.
The nature of data set [15]: Elimination rate constant in male ICR mouse at 20 mg/kg, ip measured up to 24 hrs by LC-MS/MS analysis. The note with it: in vivo. In kind it is ADME, organism-based.
Data set [16] in a line: Elimination rate constant in male ICR mouse at 5 mg/kg, iv measured up to 24 hrs by LC-MS/MS analysis. In kind it is ADME, organism-based. The note with it: in vivo.

Calls of active or inactive are those of the source.

Consider `Nc1nc(-c2ccco2)c2cnn(CCc3ccc(C(=O)Nc4ccccc4N)cc3)c2n1`, for which the half-life – broadly, the time needed for the level to fall by half in the phase considered – in [1] is 2.24 h. In addition, the figures for the bioavailability in data set [2] and in data set [9] were 119% and 43%, respectively. The IC50 – broadly, the concentration that gives 50% inhibition – in [3] was more than 10 µM; in data set [11], 0.24 µM. For the same molecule, the concentration in data set [4] peaked (Cmax) at 8410 ng/mL. Moreover, in data set [5], the inhibition in vivo at 30 mg/kg was determined as 68%. In addition, the Ki (usually the dissociation constant of the complex between target and ligand, obtained from inhibition or displacement) in [6] was more than 10 µM; in data set [10], 0.163 µM. In addition, the Tmax (in general, the time from dosing to the highest level) in data set [7] came to 0.333 h. Moreover, in data set [8], the inhibition entry was “Active”. Further, the concentration for 50% growth inhibition (GI50) (usually the concentration that inhibits growth by half) in [12] turned out to be 0.38 µM. The CL/F (commonly the apparent clearance, not corrected for the fraction that reaches the circulation) in [13] came to 33.5 mL/min/kg. Further, the AUC(0-t) – broadly, the area under the concentration-time curve up to a stated or last time point – at 24 h in data set [14] stood at 10000 ng·h/mL. The results for the k el at 24 h in data set [15] and in data set [16] were 0.000234 s⁻¹ and 0.000506 s⁻¹, respectively.
